Data taken from patent US12590081B2, “Fused imidazole derivatives, preparation method and medicinal use thereof” (Jiangsu Hengrui Pharmaceuticals Co., Ltd., priority 2020, dated 2026).

Legend:
GLP-1 receptor = target: T1, GLP-1 receptor (Homo sapiens, UniProt P43220); test: Agonist activity against GLP-1 receptor, CRE-luciferase reporter (ONE-Glo) in CHO-K1/CRE-luc/GLP-1 receptor cells; format: cell-based; conditions: 6 h incubation, luciferase readout
T1 construct: expressed in transfected cells
T1 sequence (P43220 24-463): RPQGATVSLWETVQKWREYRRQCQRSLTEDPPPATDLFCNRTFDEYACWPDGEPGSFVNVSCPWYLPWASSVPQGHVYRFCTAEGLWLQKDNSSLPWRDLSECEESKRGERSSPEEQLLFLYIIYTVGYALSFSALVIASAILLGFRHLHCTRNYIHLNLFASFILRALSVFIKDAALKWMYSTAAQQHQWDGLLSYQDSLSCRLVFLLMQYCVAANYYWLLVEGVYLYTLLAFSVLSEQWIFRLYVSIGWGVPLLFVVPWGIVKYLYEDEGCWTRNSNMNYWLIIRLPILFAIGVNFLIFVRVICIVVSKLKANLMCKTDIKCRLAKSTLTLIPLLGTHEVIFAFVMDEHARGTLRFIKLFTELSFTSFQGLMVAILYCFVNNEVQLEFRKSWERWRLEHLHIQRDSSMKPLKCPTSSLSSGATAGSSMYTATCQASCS
Excerpt: This experiment was intended to test the agonist activity of the compound molecules against the GLP-1 receptor and evaluate the in vitro activity of the molecules according to EC50. The experiment adopted a ONE-Glo™ Luciferase Assay System (Promega, E6110). Under the action of compound molecules, GLP-1R downstream signaling pathways were activated to cause elevated cAMP level. The combination of cAMP and CRE could start the transcription expression of CRE downstream luciferase genes, the luciferase could emit fluorescence when reacting with substrates thereof, and the activity of the compound for agonizing GLP-1 receptors was reflected by measuring fluorescence signals through a ONE-Glo™ reagent.
Stably-expressed CHO-K1/CRE-luc/GLP-1 receptor cell strains (self-construction of GLP-1 receptor plasmid; CRE-luc plasmid Promega E8471) was constructed. CHO-K1/CRE-luc/GLP-1 receptor cells were digested, and resuspended after centrifugation. Single cell suspension was uniformly mixed, and adjusted to a viable cell density of 2.5×10^5 cell/mL with a cell culture medium (DME/F-12+10% FBS), and the resulting solution was added to a 96-well cell culture plate at 90 μL/well (Corning, #3903). The plate was incubated in an incubator for 16 h (37° C., 5% CO2).
The compound was dissolved in DMSO to prepare a stock solution with an initial concentration of 20 mM. The starting concentration of the small molecule compound was 0.2 mM, and the compound underwent 3-fold serial dilution for a total of 10 concentration points, with DMSO at the 11th point. To another 96-well plate was added 95 μL of cell culture medium (DME/F-12+10% FBS), 5 μL of test samples with different concentrations were added to each well, followed by uniform mixing, and then 10 μL of test samples with different concentrations were added to each well, with two duplicate wells set for each sample. The plate was incubated in an incubator for 6 h (37° C., 5% CO2). The 96-well cell culture plate was taken out, and 100 μL of ONE-Glo™ reagent was added to each well, followed by incubation at room temperature for 10 min. The plate was placed in a microplate reader (EnVision 2105, PE) for determination of chemiluminescence.
Data were processed and analyzed using Microsoft Excel and Graphpad Prism 5.

[1] = target: T2, hERG potassium ion channel (Homo sapiens, UniProt Q12809); test: Blocking effect on hERG potassium currents, automated patch clamp in HEK293-hERG cells; format: cell-based; conditions: automated patch clamp (Patchliner)
T2 construct: expressed in transfected cells
T2 sequence (Q12809 whole entry): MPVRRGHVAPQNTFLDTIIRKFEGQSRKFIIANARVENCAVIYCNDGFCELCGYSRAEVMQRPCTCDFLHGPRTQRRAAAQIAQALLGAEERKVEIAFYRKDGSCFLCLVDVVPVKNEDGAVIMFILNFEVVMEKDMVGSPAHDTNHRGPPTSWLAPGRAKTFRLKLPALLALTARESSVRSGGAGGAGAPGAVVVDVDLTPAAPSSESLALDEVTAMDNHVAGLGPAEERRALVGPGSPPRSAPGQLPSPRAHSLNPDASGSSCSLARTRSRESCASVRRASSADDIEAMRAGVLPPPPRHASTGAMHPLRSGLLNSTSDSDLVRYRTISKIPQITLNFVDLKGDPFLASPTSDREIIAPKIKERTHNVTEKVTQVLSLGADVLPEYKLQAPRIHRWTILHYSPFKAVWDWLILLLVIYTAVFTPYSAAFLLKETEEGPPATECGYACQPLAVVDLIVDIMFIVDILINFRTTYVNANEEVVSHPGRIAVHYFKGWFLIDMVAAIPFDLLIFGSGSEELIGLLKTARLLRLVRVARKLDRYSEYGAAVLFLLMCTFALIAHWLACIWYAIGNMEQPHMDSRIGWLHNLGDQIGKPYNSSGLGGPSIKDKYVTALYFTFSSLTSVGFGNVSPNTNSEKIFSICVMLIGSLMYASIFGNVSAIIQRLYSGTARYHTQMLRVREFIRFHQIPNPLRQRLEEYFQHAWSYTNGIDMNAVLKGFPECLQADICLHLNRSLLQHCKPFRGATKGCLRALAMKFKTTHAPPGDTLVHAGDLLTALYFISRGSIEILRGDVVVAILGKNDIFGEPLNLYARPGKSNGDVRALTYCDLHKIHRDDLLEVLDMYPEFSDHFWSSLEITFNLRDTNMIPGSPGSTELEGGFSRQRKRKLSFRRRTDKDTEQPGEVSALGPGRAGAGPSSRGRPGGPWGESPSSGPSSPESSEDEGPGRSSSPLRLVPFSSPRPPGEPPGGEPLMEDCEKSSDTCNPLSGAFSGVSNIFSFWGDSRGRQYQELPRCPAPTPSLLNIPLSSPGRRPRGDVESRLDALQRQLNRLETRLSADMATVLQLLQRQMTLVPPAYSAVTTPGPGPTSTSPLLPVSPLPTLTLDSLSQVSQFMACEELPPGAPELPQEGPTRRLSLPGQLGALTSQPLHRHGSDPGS
Description: The blocking effect of hERG potassium currents by the compounds of the present disclosure was tested in a stable cell strain transfected with an hERG potassium channel using an automated patch clamp.
HEK293 cell lines were transfected with pCDNA3.1(+) from which the hERG gene had been constructed, and then stably-expressed monoclonal HEK293-hERG cell strains were selected by addition of G418. Stably-expressed HEK293-hERG cell strains were subcultured at a density of 1:4 in an MEM/EBSS medium (10% FBS, […] G418, 1% MEM non-essential amino acid solution (100×), 1% sodium pyruvate solution) and subjected to an automated patch clamp experiment within 48-72 h after the start of the culture. On the day of experiment, the cells were digested with […] pancreatin (life technologies, 12563-029), collected by centrifugation and resuspended in an extracellular fluid (140 mM NaCl, 4 mM KCl, 1 mM MgCl2, 2 mM CaCl2, 5 mMD glucose monohydrate, 10 mM HEPES, pH 7.4, 298 mOsmol) to prepare a cell suspension. The cell suspension was placed on the cell bank of the Patchliner instrument that transferred the cells to the chip (NPC-16) using a negative pressure controller. […] The currents at various concentrations of the compound and in the blank control were analyzed by data analysis software provided by HEAK EPC10 patch clamp amplifier (Nanion) and Pathlinersoftware and Pathcontrol HTsoftware. […]

Structure (SMILES)	EC50 (GLP-1 receptor) [nM]	Emax (GLP-1 receptor) [%]	IC50 [1] [nM]
C[C@]1(c2ccc(Cl)cc2F)Oc2cccc(C3=CCN(Cc4nc5ccc(C(=O)O)nc5n4C[C@@H]4CCO4)CC3)c2O1 [Example 7, 2-((4-((S)-2-(4-chloro-2-fluorophenyl)-2-methylbenzo[d][1,3]dioxol-4-yl)-3,6-dihydropyridin-1(2H)-yl)methyl)-3-(((S)-oxetan-2-yl)methyl)-3H-imidazo[4,5-b]pyridine-5-carboxylic acid]	0.45	107	
C[C@]1(c2ccc(Cl)cc2F)Oc2cccc(C3=CCN(Cc4nc5ccc(C(=O)O)cc5n4C[C@@H]4CCO4)CC3)c2O1 [Example 4, 2-((4-((S)-2-(4-chloro-2-fluorophenyl)-2-methylbenzo[d][1,3]dioxol-4-yl)-3,6-dihydropyridin-1(2H)-yl)methyl)-1-(((S)-oxetan-2-yl)methyl)-1H-benzo[d]imidazole-6-carboxylic acid]	0.12	104	22000
N#Cc1ccc(COc2cccc(C3=CCN(Cc4nc5ccc(C(=O)O)cc5n4C[C@@H]4CCO4)CC3)n2)c(F)c1 [Example 1]	0.12	110	
CC1(c2ccc(Cl)cc2F)Oc2cccc(C3=CCN(Cc4nc5ccc(C(=O)O)cc5n4C[C@@H]4CCO4)CC3)c2O1 (stereo partly drawn) [Example 2, 2-((4-(2-(4-chloro-2-fluorophenyl)-2-methylbenzo[d][1,3]dioxol-4-yl)-3,6-dihydropyridin-1(2H)-yl)methyl)-1-(((S)-oxetan-2-yl)methyl)-1H-benzo[d]imidazole-6-carboxylic acid]	0.92	110	
N#Cc1ccc(CSc2nc(C3=CCN(Cc4nc5ccc(C(=O)O)cc5n4C[C@@H]4CCO4)CC3)ccc2F)c(F)c1 [Example 6, (S)-2-((6-(4-cyano-2-fluorobenzyl)thio-5-fluoro-3′,6′-dihydro-[2,4′-bipyridin]-1′(2′H)-yl)methyl)-1-(oxetan-2-ylmethyl)-1H-benzo[d]imidazole-6-carboxylic acid]	0.85	108	
CC(Oc1cccc(C2=CCN(Cc3nc4ccc(C(=O)O)cc4n3C[C@@H]3CCO3)CC2)n1)c1ccc(Cl)cc1F (stereo partly drawn) [Example 3]	1.38	106	
N#Cc1ccc(CSc2cccc(C3=CCN(Cc4nc5ccc(C(=O)O)cc5n4C[C@@H]4CCO4)CC3)n2)c(F)c1 [Example 5, (S)-2-((6-(4-cyano-2-fluorobenzyl)thio-3′,6′-dihydro-[2,4′-bipyridin]-1′(2′H)-yl)methyl)-1-(oxetan-2-ylmethyl)-1H-benzo[d]imidazole-6-carboxylic acid]	1.93	110	
